Test results published in patent US20230382924A1, “MODULATORS OF CYSTIC FIBROSIS TRANSMEMBRANE CONDUCTANCE REGULATOR” (VERTEX PHARMACEUTICALS INCORPORATED, priority 2020, published 2023).
“And” between values parts separate entries of the source, which are not always exact repeats. Equal values may be shown once. Read-outs that look alike come from different tables or passages of the source.

What was measured:
CFTR [1] = molecular target: T1, CFTR (Homo sapiens, UniProt P13569); test: Membrane Potential Dye, Enteroid Assay A; format: cell-based; settings: for EC50: read-out: Ent. A EC50
Procedure, shortened: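 Enteroid cells were loaded with methyl oxonol membrane potential dye (plus CaCCinh-A01 and Chicago Sky Blue) for 25 min at room temperature. Chloride transport was started by switching to chloride-free gluconate stimulation solution, with fluorescence read for 15 min. Activity was expressed as % of a triple-combination CFTR modulator control (3 μM, 3 μM, 300 nM acute).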

CFTR [2] = molecular target: T1, CFTR; test: Membrane Potential Dye, Enteroid Assay B; format: cell-based; settings: for EC50: read-out: Ent. B EC50
Procedure, shortened: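 Enteroid cells loaded 25 min at room temperature with 20 μM methyl oxonol plus 30 μM CaCCinh-A01 and 30 μM Chicago Sky Blue, then switched to chloride-free gluconate buffer. Chloride transport was started by chloride-free stimulation solution, with fluorescence read for 15 min.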

F508del = molecular target: T2, F508del (Homo sapiens, UniProt P13569, DEL508-508); test: 3T3 assay: membrane potential optical assay for F508del correction in NIH 3T3 cells; format: cell-based; settings: for Emax: NIH3T3, read-out: 3T3 Max Activity
T2 construct: expressed in transfected cells
From the text: 1. Membrane Potential Optical Methods for Assaying F508del Modulation Properties of Compounds
The assay utilizes fluorescent voltage sensing dyes to measure changes in membrane potential using a fluorescent plate reader (e.g., FLIPR III, Molecular Devices, Inc.) as a readout for increase in functional F508del in NIH 3T3 cells. The driving force for the response is the creation of a chloride ion gradient in conjunction with channel activation by a single liquid addition step after the cells have previously been treated with compounds and subsequently loaded with a voltage sensing dye.
2. Identification of Corrector Compounds
To identify correctors of F508del, a single-addition HTS assay format was developed. This HTS assay utilizes fluorescent voltage sensing dyes to measure changes in membrane potential on the FLIPR III as a measurement for increase in gating (conductance) of F508del in F508del NIH 3T3 cells. The F508del NIH 3T3 cell cultures were incubated with the corrector compounds at a range of concentrations for 18-24 hours at 37° C., and subsequently loaded with a redistribution dye. The driving force for the response is a Cl^− ion gradient in conjunction with channel activation with forskolin in a single liquid addition step using a fluorescent plate reader such as FLIPR III.
Bath Solution #1: (in mM) NaCl 160, KCl 4.5, CaCl2) 2, MgCl2 1, HEPES 10, pH 7.4 with NaOH.
Chloride-free bath solution: Chloride salts in Bath Solution #1 (above) are substituted with gluconate salts.
NIH3T3 mouse fibroblasts stably expressing F508del are used for optical measurements of membrane potential. The cells are maintained at 37° C. in 5% CO2 and 90% humidity in Dulbecco's modified Eagle's medium supplemented with 2 mM glutamine, 10% fetal bovine serum, 1×NEAA, b-ME, 1×pen/strep, and 25 mM HEPES in 175 cm^2 culture flasks. For all optical assays, the cells were seeded at ˜20,000/well in 384-well matrigel-coated plates. For the correction assays, the cells are cultured at 37° C. with and without compounds for 16-24 hours.

[3] = NIH 3T3 cells, F508del correction

T1 sequence (P13569 with tags, fused parts or gaps DEL508-508): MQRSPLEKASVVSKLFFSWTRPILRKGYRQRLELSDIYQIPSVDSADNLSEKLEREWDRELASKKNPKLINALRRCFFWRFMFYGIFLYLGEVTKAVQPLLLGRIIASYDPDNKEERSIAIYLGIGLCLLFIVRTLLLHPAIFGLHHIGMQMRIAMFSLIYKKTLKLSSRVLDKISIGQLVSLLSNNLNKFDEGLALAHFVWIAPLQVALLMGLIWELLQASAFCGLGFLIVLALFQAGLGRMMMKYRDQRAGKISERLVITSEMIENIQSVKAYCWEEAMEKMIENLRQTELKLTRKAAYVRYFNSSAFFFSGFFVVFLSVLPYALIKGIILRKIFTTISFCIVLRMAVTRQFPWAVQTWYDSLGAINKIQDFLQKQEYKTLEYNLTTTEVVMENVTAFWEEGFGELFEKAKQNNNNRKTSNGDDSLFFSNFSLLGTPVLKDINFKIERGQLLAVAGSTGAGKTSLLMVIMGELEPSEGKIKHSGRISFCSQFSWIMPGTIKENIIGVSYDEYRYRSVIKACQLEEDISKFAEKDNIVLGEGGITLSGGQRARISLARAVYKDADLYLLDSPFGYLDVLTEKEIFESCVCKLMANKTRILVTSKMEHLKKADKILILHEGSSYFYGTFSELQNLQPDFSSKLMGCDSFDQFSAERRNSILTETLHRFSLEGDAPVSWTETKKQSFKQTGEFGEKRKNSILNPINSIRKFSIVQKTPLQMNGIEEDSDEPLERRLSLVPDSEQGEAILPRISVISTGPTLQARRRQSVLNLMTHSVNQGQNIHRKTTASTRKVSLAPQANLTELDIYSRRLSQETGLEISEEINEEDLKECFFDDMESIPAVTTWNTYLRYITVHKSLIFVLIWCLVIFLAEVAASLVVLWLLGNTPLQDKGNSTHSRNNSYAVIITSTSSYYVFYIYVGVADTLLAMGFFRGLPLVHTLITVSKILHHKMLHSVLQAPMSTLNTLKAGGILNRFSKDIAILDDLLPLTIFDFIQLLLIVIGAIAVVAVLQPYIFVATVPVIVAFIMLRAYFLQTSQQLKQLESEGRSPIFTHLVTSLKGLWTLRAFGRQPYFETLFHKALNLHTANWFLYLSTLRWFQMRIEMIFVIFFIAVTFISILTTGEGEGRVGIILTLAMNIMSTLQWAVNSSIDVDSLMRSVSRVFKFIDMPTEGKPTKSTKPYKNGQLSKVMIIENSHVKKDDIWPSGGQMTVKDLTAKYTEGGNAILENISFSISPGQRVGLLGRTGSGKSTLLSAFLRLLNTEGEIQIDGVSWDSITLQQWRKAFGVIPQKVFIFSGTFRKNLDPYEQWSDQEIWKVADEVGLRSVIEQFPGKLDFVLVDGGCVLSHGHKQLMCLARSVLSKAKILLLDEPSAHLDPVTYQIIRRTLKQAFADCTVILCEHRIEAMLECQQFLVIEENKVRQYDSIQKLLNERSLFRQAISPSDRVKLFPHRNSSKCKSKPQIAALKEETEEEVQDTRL
T2 sequence (P13569 with tags, fused parts or gaps DEL508-508): as above

Cc1cccc(C)c1-c1cc2nc(n1)NS(=O)(=O)c1cccc(c1)C(=O)NCC(c1ccc(OCC3(C(F)(F)F)CC3)cc1)O2 (stereo not drawn) [Compound 33, 6-(2,6-Dimethylphenyl)-2,2-dioxo-10-[4-[[1-(trifluoromethyl)cyclopropyl]methoxy]phenyl]-9-oxa-2λ^6-thia-3,5,12,19-tetrazatricyclo[12.3.1.14,8]nonadeca-1(18),4(19),5,7,14,16-hexaen-13-one]
ring closure, yield after HPLC (from Cc1cccc(C)c1-c1cc(OC(CN)c2ccc(OCC3(C(F)(F)F)CC3)cc2)nc(NS(=O)(=O)c2cccc(C(=O)O)c2)n1, amide bond, 13-membered ring, HATU/DIEA, DMF, 48.7 mM, 25.0 °C, 72.0 h): 10%
Ent. A Max Activity (CFTR [1]; Table 8): +++ (+++ is >60%)
EC50 (CFTR [1]; Table 8): < 1000 nM

Cc1cccc(C)c1-c1cc2nc(n1)NS(=O)(=O)c1cccc(c1)C(=O)N[C@H](C)[C@@H](c1ccc(C(F)(F)F)cc1)O2 [Compound 41, (10R,11R)-6-(2,6-Dimethylphenyl)-11-methyl-2,2-dioxo-10-[4-(trifluoromethyl)phenyl]-9-oxa-2λ^6-thia-3,5,12,19-tetrazatricyclo[12.3.1.14,8]nonadeca-1(18),4(19),5,7,14,16-hexaen-13-one]
ring closure, yield after HPLC (from Cc1cccc(C)c1-c1cc(O[C@H](c2ccc(C(F)(F)F)cc2)[C@@H](C)N)nc(NS(=O)(=O)c2cccc(C(=O)O)c2)n1, amide bond, 13-membered ring, HATU/NaOtBu, DMF/THF, 96.3 mM, 25.0 °C, 0.33 h, 2 steps): 10%
Ent. A Max Activity (CFTR [1]; Table 9): ++ (++ is 30-60%)
EC50 (CFTR [1]; Table 9): < 1000 nM

Cc1cccc(C)c1-c1cc2nc(n1)NS(=O)(=O)c1cccc(c1)C(=O)NCC(c1ccc(C(C)(C)C)cc1)O2 (stereo not drawn) [Compound 3, 10-(4-tert-butylphenyl)-6-(2,6-dimethylphenyl)-2,2-dioxo-9-oxa-2λ^6-thia-3,5,12,19-tetrazatricyclo[12.3.1.14,8]nonadeca-1(18),4(19),5,7,14,16-hexaen-13-one]
ring closure, yield after HPLC (from Cc1cccc(C)c1-c1cc(Cl)nc(NS(=O)(=O)c2cccc(C(=O)NCC(O)c3ccc(C(C)(C)C)cc3)c2)n1, snar bond, 13-membered ring, NaH, NMP, 8.5 mM, 90.0 °C, 2.5 h): 12%
Ent. A Max Activity (CFTR [1]; Table 8): +++ (+++ is >60%)
EC50 (CFTR [1]; Table 8): < 1000 nM

Cc1cccc(C)c1-c1cc2nc(n1)NS(=O)(=O)c1cccc(c1)C(=O)N[C@H](CC1CCCCC1)CO2 [Compound 365]
EC50 (CFTR [2]; Enteroid Assay B): < 1000 nM
Ent. A Max Activity (CFTR [1]; Enteroid Assay A): +++ (+++ is >600%)
EC50 (CFTR [1]; Enteroid Assay A): < 1000 nM
EC50 (F508del; [3]): < 1000 nM

Cc1cccc(C)c1-c1cc2nc(n1)NS(=O)(=O)c1cccc(c1)C(=O)NCC(c1ccc(C3CCC3)cc1)O2 (stereo not drawn)
ring closure, yield after HPLC (from Cc1cccc(C)c1-c1cc(OC(CN)c2ccc(C3CCC3)cc2)nc(NS(=O)(=O)c2cccc(C(=O)O)c2)n1, amide bond, 13-membered ring, HATU/DIEA, DMF, 189.0 mM, 25.0 °C, 0.5 h): 1%

Cc1cccc(C)c1-c1nc2cc(n1)OC[C@@H](CC(C)C)NC(=O)c1cccc(c1)S(=O)(=O)N2
ring closure, yield after HPLC (from Cc1cccc(C)c1-c1nc(NS(=O)(=O)c2cccc(C(=O)O)c2)cc(OC[C@H](N)CC(C)C)n1, amide bond, 13-membered ring, HATU/TEA, DMF, 12.2 mM, 25.0 °C, 0.083 h): 32%

Cc1cccc(C)c1-c1cc2nc(n1)NS(=O)(=O)c1cccc(c1)C(=O)N[C@@H](C)[C@@H](c1ccc(C(C)(C)C)cc1)O2 [Compound 43, (10R,11S)-10-(4-tert-butylphenyl)-6-(2,6-dimethylphenyl)-11-methyl-2,2-dioxo-9-oxa-2λ^6-thia-3,5,12,19-tetrazatricyclo[12.3.1.14,8]nonadeca-1(18),4(19),5,7,14,16-hexaen-13-one]
ring closure, yield after HPLC (from Cc1cccc(C)c1-c1cc(O[C@H](c2ccc(C(C)(C)C)cc2)[C@H](C)N)nc(NS(=O)(=O)c2cccc(C(=O)O)c2)n1, amide bond, 13-membered ring, HATU/NaOtBu, DMF/THF, 53.4 mM, 25.0 °C, 0.1 h, 2 steps): 13%
Ent. A Max Activity (CFTR [1]; Table 9): +++ (+++ is >60%)
EC50 (CFTR [1]; Table 9): < 1000 nM

Cc1cccc(C)c1-c1cc2nc(n1)NS(=O)(=O)c1cccc(c1)C(=O)N[C@H](CC(C)C)C(c1ccc(C(C)(C)C)cc1)O2 (stereo partly drawn)
ring closure, yield after HPLC (from Cc1cccc(C)c1-c1cc(OC(c2ccc(C(C)(C)C)cc2)[C@H](N)CC(C)C)nc(NS(=O)(=O)c2cccc(C(=O)O)c2)n1, amide bond, 13-membered ring, HATU/NaOtBu, DMF/THF, 69.4 mM, 25.0 °C, 2.0 h, 2 steps): 21% and 15%

Cc1cccc(C)c1-c1cc2nc(n1)NS(=O)(=O)c1cccc(c1)C(=O)NC[C@@H](c1ccc(C(C)(C)C)cc1)O2 (single isomer, unassigned) [Compound 5]
Ent. B Max Activity (CFTR [2]; Table 8): +++ (+++ is >60%)
EC50 (CFTR [2]; Table 8): < 1000 nM
Ent. A Max Activity (CFTR [1]; Table 8): +++ (+++ is >60%)
EC50 (CFTR [1]; Table 8): < 1000 nM
Emax (F508del; Table 8): > 60%
EC50 (F508del; Table 8): < 1000 nM

Cc1cccc(C)c1-c1cc2nc(n1)NS(=O)(=O)c1cccc(c1)C(=O)NC[C@H](C)O2 [Compound 27, (10S)-6-(2,6-Dimethylphenyl)-10-methyl-2,2-dioxo-9-oxa-2λ^6-thia-3,5,12,19-tetrazatricyclo[12.3.1.14,8]nonadeca-1(18),4(19),5,7,14,16-hexaen-13-one]
ring closure, yield after HPLC (from Cc1cccc(C)c1-c1cc(O[C@@H](C)CN)nc(NS(=O)(=O)c2cccc(C(=O)O)c2)n1, amide bond, 13-membered ring, HATU/DIEA, DMF, 25.0 °C, 1.0 h, 2 steps): 55%

Cc1cccc(C)c1-c1cc2nc(n1)NS(=O)(=O)C1CCC1C(=O)N[C@H](CC(C)C)CO2 (stereo partly drawn)
ring closure, yield after HPLC (from Cc1cccc(C)c1-c1cc(OC[C@H](N)CC(C)C)nc(NS(=O)(=O)C2CCC2C(=O)O)n1, amide bond, 12-membered ring, HATU/DIEA, DMF, 42.9 mM, 25.0 °C, 0.083 h, 2 steps): 4% and 8%

Cc1cccc(C)c1-c1cc2nc(n1)NS(=O)(=O)c1cccc(c1)C(=O)N[C@H](CC(C)(C)C)CO2 [Compound 97, (11R)-6-(2,6-dimethylphenyl)-11-(2,2-dimethylpropyl)-2,2-dioxo-9-oxa-2λ^6-thia-3,5,12,19-tetrazatricyclo[12.3.1.14,8]nonadeca-1(18),4(19),5,7,14,16-hexaen-13-one]
EC50 (CFTR [2]; Enteroid Assay B): < 1000 nM
Ent. A Max Activity (CFTR [1]; Enteroid Assay A): +++ (+++ is >600%)
EC50 (CFTR [1]; Enteroid Assay A): < 1000 nM
EC50 (F508del; [3]): < 1000 nM

Cc1cccc(C)c1-c1cc2nc(n1)NS(=O)(=O)c1cccc(c1)C(=O)NC[C@H](CO[Si](c1ccccc1)(c1ccccc1)C(C)(C)C)O2
ring closure, yield after HPLC (from Cc1cccc(C)c1-c1cc(O[C@H](CN)CO[Si](c2ccccc2)(c2ccccc2)C(C)(C)C)nc(NS(=O)(=O)c2cccc(C(=O)O)c2)n1, amide bond, 13-membered ring, HATU/DIEA, DMF, 30.8 mM, 25.0 °C, 1.0 h, 2 steps): 98%

Cc1cccc(C)c1-c1cc2nc(n1)NS(=O)(=O)c1ccnc(c1)C(=O)N[C@H](CC1CCCCC1)CO2 [Compound 142]
Ent. B Max Activity (CFTR [2]; Table 8): ++ (++ is 306%)
EC50 (CFTR [2]; Table 8): < 1000 nM
Ent. A Max Activity (CFTR [1]; Table 8): +++ (+++ is >60%)
EC50 (CFTR [1]; Table 8): 1000 to 3000 nM
Emax (F508del; Table 8): > 60%
EC50 (F508del; Table 8): < 1000 nM

Cc1cccc(C)c1-c1cc2nc(n1)NS(=O)(=O)c1cccc(c1)C(=O)NCC(c1ccc([Si](C)(C)C)cc1)O2 (stereo not drawn)
ring closure, yield after HPLC (from Cc1cccc(C)c1-c1cc(OC(CN)c2ccc([Si](C)(C)C)cc2)nc(NS(=O)(=O)c2cccc(C(=O)O)c2)n1, amide bond, 13-membered ring, HATU/DIEA, DMF, 55.1 mM, 25.0 °C, 0.5 h): 23%

Cc1cccc(C)c1-c1cc2nc(n1)NS(=O)(=O)c1cccc(c1)C(=O)NC1CC(CN(CCC(C)(C)C)C1)O2 (stereo not drawn)
ring closure, yield after HPLC (from Cc1cccc(C)c1-c1cc(Cl)nc(NS(=O)(=O)c2cccc(C(=O)NC3CC(O)CN(CCC(C)(C)C)C3)c2)n1, snar bond, 14-membered ring, NaH, NMP, 5.8 mM, 70.0 °C, 2.0 h, 2 steps): 2%
ring closure, yield after HPLC (from Cc1cccc(C)c1-c1cc(Cl)nc(NS(=O)(=O)c2cccc(C(=O)NC3CC(O)CN(CCC(C)(C)C)C3)c2)n1, snar bond, 14-membered ring, NaH, NMP, 9.2 mM, 70.0 °C, 2.0 h, 2 steps): 3%

Cc1cccc(C)c1-c1cc2nc(n1)NS(=O)(=O)c1cccc(c1)C(=O)NC[C@H](c1ccccc1)O2 [Compound 26, (10S)-6-(2,6-Dimethylphenyl)-2,2-dioxo-10-phenyl-9-oxa-2λ^6-thia-3,5,12,19-tetrazatricyclo[12.3.1.14,8]nonadeca-1(18),4(19),5,7,14,16-hexaen-13-one]
ring closure, yield after HPLC (from Cc1cccc(C)c1-c1cc(O[C@H](CN)c2ccccc2)nc(NS(=O)(=O)c2cccc(C(=O)O)c2)n1, amide bond, 13-membered ring, HATU/DIEA, DMF, 25.9 mM, 25.0 °C, 1.0 h, 2 steps): 38%
